In patent EP1714638A1, “Cosmetic deodorant composition comprising a combination of zinc salicylate or a derivative thereof with an aluminium salt antiperspirant active” (L'ORÉAL, priority 2005, dated 2006):

Assay: Deodorant efficacy test: odour intensity of incubated axillary sweat rated by an expert panel
Set-up: species or system humaine
Details: 24 heures d'incubation à 37°C, versus control sweat without active, scale 0-4
Description: Des recueils de sueur axillaire sont effectués en sauna sur 6 volontaires, les échantillons de sueur individuelle, conservés dans la glace pendant quelques heures, sont alors pratiquement inodores. Ils sont ensuite mélangés et répartis en aliquots de 1 ml. Les actifs sont rajoutés à ces aliquots, puis mis à incuber à l'étuve 37°C. Après 24 heures d'incubation, un jury d'experts évalue l'intensité de l'odeur comparativement à un échantillon témoin : 1 ml de sueur incubée sans ajout d'actif. L'intensité est évaluée sur une échelle de 0 (pas d'odeur) à 4 (très forte odeur).
Les résultats sont exprimés en % de variation de l'intensité de l'odeur comparativement à cet échantillon de sueur témoin (moyenne des % de variation à T24h). Δ = ((intensité odeur de l'échantillon témoin−intensité odeur de l'échantillon avec actif))/(intensité odeur de l'échantillon témoin) × 100 [formula]

Compound	% de diminution de l'intensité de l'odeur (0,1 mg MA/ml de sueur)	also measured
Oc1cc(Cl)ccc1Oc1ccc(Cl)cc1Cl [(B), 2,4,4'-trichloro-2'-hydroxydiphényléther]		% de diminution de l'intensité de l'odeur (0,4 mg MA/ml de sueur): -49%
CCCCCC[C@@H](O)C/C=C\CCCCCCCC(=O)[O-].CCCCCC[C@@H](O)C/C=C\CCCCCCCC(=O)[O-].[Zn+2] [(C), Ricinoleate de zinc]		% de diminution de l'intensité de l'odeur (0,3 mg MA/ml de sueur): -4%
Aluminium chlorohydrate [ACH]	-35%	
Salicylate de zinc [(A)]	-21%	
